Test results from US12643912B2, “Macrocyclic compounds, a process for their preparation and pharmaceutical compositions containing them” (LES LABORATOIRES SERVIER, priority 2020, dated 2026).
Where two headings read alike, the source gives them in different places.

Key:
Keap1 (A321-C624) (h) = biological target: T1, Keap1 (A321-C624) (h) (Homo sapiens, UniProt Q14145); test: Surface Plasmon Resonance binding assay to Kelch domain of KEAP1; conditions: Biacore T200, 25° C., immobilized His-Thromb-KEAP1(A321-C624), single cycle kinetics, KD=kd/ka from 1:1 fit; read-out: Keap1 (A321-C624) (h) direct/SPR (KD)
T1 construct: His-Thromb-KEAP1(A321-C624) acquired from Novalix (batch PU-P01) was immobilized covalently by amine coupling; His tag (N); thrombin cleavage site (Thromb) (N); purchased Novalix batch PU-P01
T1 sequence (Q14145 321-624): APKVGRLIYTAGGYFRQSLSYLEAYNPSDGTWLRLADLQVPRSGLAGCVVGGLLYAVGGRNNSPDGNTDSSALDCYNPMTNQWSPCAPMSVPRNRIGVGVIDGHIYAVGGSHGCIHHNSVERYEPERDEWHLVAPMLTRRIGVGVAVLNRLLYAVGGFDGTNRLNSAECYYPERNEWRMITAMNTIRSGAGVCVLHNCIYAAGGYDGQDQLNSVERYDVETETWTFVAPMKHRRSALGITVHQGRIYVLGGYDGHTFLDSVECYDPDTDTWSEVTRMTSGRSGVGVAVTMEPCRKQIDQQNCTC
How it was run: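 His-Thromb-KEAP1(A321-C624) amine-coupled on CM5 chip to 1250 RU; amine blank reference. Run at 25° C in HEPES pH 7.4, 150 mM NaCl, 3 mM EDTA, 1 mM TCEP, 0.05% P20, 5% DMSO; 180 s association, 720 s dissociation, 50 μL/min. KD = kd/ka from 1:1 kinetic fit, double-referenced, DMSO solvent-corrected.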

[1] = system: Nrf2 (Keap1-NRF2 nuclear translocation); test: U2OS translocation assay (PathHunter U2OS Keap1-NRF2 Nuclear Translocation Cell Line); type: cell-based
How it was run: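 PathHunter U2OS line expressing Nrf2-enzyme-donor fusion and nuclear acceptor enzyme, 7 500 cells/well in Opti-MEM, 1% FBS. Compounds incubated 3 h at 37° C. Luminescence after 60 min with detection reagent, normalized between 1% DMSO and 10 μM andrographolide.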

[2] = Homo sapiens, U2OS, 3 h, read-out: CELLULAR U2OS EC50 (nM), U2OS Keap1-NRF2 nuclear translocation cells, 3 h incubation, luminescence, normalized between 1% DMSO and 10 μM andrographolide
[3] = read-out: CELLULAR U2OS EC50, U2OS Keap1-NRF2 nuclear translocation cells, 3 h incubation, luminescence, normalized between 1% DMSO and 10 μM andrographolide

Row | Compound | Kd (Keap1 (A321-C624) (h)) | EC50 [1, 2] | EC50 [1, 3]
1 | Cc1ccc2cc1CN1Cc3cc(ccc3OS1(=O)=O)OCCCCn1cc(nn1)C(=O)NC2CC(=O)O (single isomer, unassigned) [Example 72a, [4-Methyl-10,25,25-trioxo-19,24-dioxa-25λ^6-thia-1,9,12,13,14-pentaazapentacyclo[18.5.3.1^3,70.1^11,140.0^23,27]triaconta-3(30),4,6,11(29),12,20,22,27-octaen-8-yl]acetic acid] | 23.6 nM | > 3160 nM | –
2 | COc1ccc2cc1CN1Cc3cc(ccc3OS1(=O)=O)OCc1ccccc1SCCCCn1nnc3c(C)c(ccc31)C2CC(=O)O (single isomer, unassigned) [Example 54b] | 391 nM | – | 2270 nM
3 | Cc1ccc2cc1CN1Cc3cc(ccc3OS1(=O)=O)OCCCCCn1nnc3c(C)c(ccc31)C2CC(=O)O (single isomer, unassigned) [Example 1b, [4,32-dimethyl-28,28-dioxo-22,27-dioxa-28λ^6-thia-1,14,15,16-tetraazahexacyclo[21.5.3.1^3,70.1^9,130.0^12,160.0^26,30]tritriaconta-3(33),4,6,9(32),10,12,14,23,25,30-decaen-8-yl]acetic acid] | 3.97 nM | – | 735 nM
4 | Cc1ccc2cc1CN1Cc3cc(cc(F)c3OS1(=O)=O)OCCCCn1nnc3c(C)c(ccc31)C2CC(=O)O (single isomer, unassigned) [Example 17b, [24-Fluoro-4,31-dimethyl-27,27-dioxo-21,26-dioxa-27λ^6-thia-1,14,15,16-tetraazahexacyclo[20.5.3.1^3,70.1^9,130.0^12,160.0^25,29]dotriaconta-3(32),4,6,9(31),10,12,14,22,24,29-decaen-8-yl]acetic acid] | 5.55 nM | – | 89 nM
5 | Cc1ccc2cc1[C@@H](C)N1Cc3cc(ccc3OS1(=O)=O)OCCCCCCn1nnc3c(C)c(ccc31)[C@H]2CC(=O)O [Example 19b, [(2R,8S)-2,4,33-trimethyl-29,29-dioxo-23,28-dioxa-29λ^6-thia-1,14,15,16-tetraazahexacyclo[22.5.3.1^3,70.1^9,130.0^12,160.0^27,31]tetratriaconta-3(34),4,6,9(33),10,12,14,24,26,31-decaen-8-yl]acetic acid] | 0.646 nM | 2.76 nM | –
6 | COc1ccc2cc1[C@@H](C)N1Cc3cc(ccc3OS1(=O)=O)OCCCCn1nnc3c(C)c(ccc31)[C@H]2CC(=O)O [Example 28b, [(2R,8S)-4-methoxy-2,31-dimethyl-27,27-dioxo-21,26-dioxa-27λ^6-thia-1,14,15,16-tetraazahexacyclo[20.5.3.1^3,70.1^9,130.0^12,160.0^25,29]dotriaconta-3(32),4,6,9(31),10,12,14,22,24,29-decaen-8-yl]acetic acid] | 3.25 nM | 15.3 nM | –
7 | COc1c(Cl)cc2cc1CN1Cc3cc(ccc3OS1(=O)=O)OCCCCn1nnc3c(C)c(ccc31)C2CC(=O)O (single isomer, unassigned) [Example 37a, [5-Chloro-4-methoxy-31-methyl-27,27-dioxo-21,26-dioxa-27λ^6-thia-1,14,15,16-tetraazahexacyclo[20.5.3.1^3,70.1^9,130.0^12,160.0^25,29]dotriaconta-3(32),4,6,9(31),10,12,14,22,24,29-decaen-8-yl]acetic acid] | 75.1 nM | – | 1300 nM
8 | COc1ccc2cc1CN1Cc3cc(ccc3OS1(=O)=O)OCCCCn1nnc3c(C)c(ccc31)C2CC(=O)O (single isomer, unassigned) [Example 10a, [4-Methoxy-31-methyl-27,27-dioxo-21,26-dioxa-27λ^6-thia-1,14,15,16-tetraazahexacyclo[20.5.3.1^3,70.1^9,130.0^12,160.0^25,29]dotriaconta-3(32),4,6,9(31),10,12,14,22,24,29-decaen-8-yl]acetic acid] | 3.54 nM | – | 58.1 nM
9 | Cc1cc2cc(c1Cl)CN1Cc3cc(ccc3OS1(=O)=O)OCCCCn1nnc3c(C)c(ccc31)C2CC(=O)O (single isomer, unassigned) [Example 36a, [4-Chloro-5,31-dimethyl-27,27-dioxo-21,26-dioxa-27λ^6-thia-1,14,15,16-tetraazahexacyclo[20.5.3.1^3,70.1^9,130.0^12,160.0^25,29]dotriaconta-3(32),4,6,9(31),10,12,14,22,24,29-decaen-8-yl]acetic acid] | 9.02 nM | – | 126 nM
10 | Cc1ccc2cc1CN1Cc3cc(ccc3OS1(=O)=O)OCCCCCOc1cc(c(C)c3nnn(C)c13)C2CC(=O)O (single isomer, unassigned) [Example 73a, [4,10,14-Trimethyl-29,29-dioxo-17,23,28-trioxa-29λ^6-thia-1,12,13,14-tetraazahexacyclo[22.5.3.1^3,70.1^9,160.0^11,150.0^27,31]tetratriaconta-3(34),4,6,9(33),10,12,15,24,26,31-decaen-8-yl]acetic acid] | 6.23 nM | – | 63.4 nM
11 | Cc1c(F)cc2cc1CN1Cc3cc(ccc3OS1(=O)=O)OCCCCn1nnc3c(C)c(ccc31)C2CC(=O)O (single isomer, unassigned) [Example 18b, [5-Fluoro-4,31-dimethyl-27,27-dioxo-21,26-dioxa-27λ^6-thia-1,14,15,16-tetraazahexacyclo[20.5.3.1^3,70.1^9,130.0^12,160.0^25,29]dotriaconta-3(32),4,6,9(31),10,12,14,22,24,29-decaen-8-yl]acetic acid] | 1.01 nM | – | 91.3 nM
12 | COc1ccc2cc1[C@@H](C)N1Cc3cc(ccc3OS1(=O)=O)OCCCCn1nnc3c(C)c(ccc31)[C@@H]2CC(=O)O [Example 28a, [(2R,8R)-4-Methoxy-2,31-dimethyl-27,27-dioxo-21,26-dioxa-27λ^6-thia-1,14,15,16-tetraazahexacyclo[20.5.3.1^3,70.1^9,130.0^12,160.0^25,29]dotriaconta-3(32),4,6,9(31),10,12,14,22,24,29-decaen-8-yl]acetic acid] | 23.4 nM | 611 nM | –
13 | Cc1ccc2cc1CN1Cc3cc(ccc3OS1(=O)=O)OCCCCn1nnc3c(C)c(ccc31)[C@@H]2CC(=O)O [Example 7b, [(8R)-4,31-dimethyl-27,27-dioxo-21,26-dioxa-27λ^6-thia-1,14,15,16-tetraazahexacyclo[20.5.3.1^3,70.1^9,130.0^12,160.0^25,29]dotriaconta-3(32),4,6,9(31),10,12,14,22,24,29-decaen-8-yl]acetic acid] | 4.86 nM | 290 nM | –
14 | Cc1c(F)cc2cc1CN1Cc3cc(ccc3OS1(=O)=O)OCCCCn1nnc3c(C)c(ccc31)C2CC(=O)O (single isomer, unassigned) [Example 18a, [5-Fluoro-4,31-dimethyl-27,27-dioxo-21,26-dioxa-27λ^6-thia-1,14,15,16-tetraazahexacyclo[20.5.3.1^3,70.1^9,130.0^12,160.0^25,29]dotriaconta-3(32),4,6,9(31),10,12,14,22,24,29-decaen-8-yl]acetic acid] | 3.67 nM | – | 1140 nM
15 | Cc1ccc2cc1CN1Cc3cc(c(F)cc3OS1(=O)=O)OCCCCn1nnc3c(C)c(ccc31)C2CC(=O)O (single isomer, unassigned) [Example 32b, [23-Fluoro-4,31-dimethyl-27,27-dioxo-21,26-dioxa-27λ^6-thia-1,14,15,16-tetraazahexacyclo[20.5.3.1^3,70.1^9,130.0^12,160.0^25,29]dotriaconta-3(32),4,6,9(31),10,12,14,22,24,29-decaen-8-yl]acetic acid] | 2.02 nM | – | 150 nM
16 | Cc1ccc2cc1CN1Cc3cc(cc(F)c3OS1(=O)=O)OCCCCn1nnc3c(C)c(ccc31)C2CC(=O)O (single isomer, unassigned) [Example 17a, [24-Fluoro-4,31-dimethyl-27,27-dioxo-21,26-dioxa-27λ^6-thia-1,14,15,16-tetraazahexacyclo[20.5.3.1^3,70.1^9,130.0^12,160.0^25,29]dotriaconta-3(32),4,6,9(31),10,12,14,22,24,29-decaen-8-yl]acetic acid] | 25.7 nM | – | 1660 nM
17 | Cc1ccc2cc1[C@@H](C)N1Cc3cc(ccc3OS1(=O)=O)OCCCCCCn1nnc3c(C)c(ccc31)[C@@H]2CC(=O)O [Example 19a, [(2R,8R)-2,4,33-Trimethyl-29,29-dioxo-23,28-dioxa-29λ^6-thia-1,14,15,16-tetraazahexacyclo[22.5.3.1^3,70.1^9,130.0^12,160.0^27,31]tetratriaconta-3(34),4,6,9(33),10,12,14,24,26,31-decaen-8-yl]acetic acid] | 1.34 nM | 73.6 nM | –
18 | Cc1ccc2cc1CN1Cc3cc(ccc3OS1(=O)=O)OC[C@H](O)CCn1nnc3c(C)c(ccc31)C2CC(=O)O (stereo partly drawn) [Example 44, [(19R)-19-hydroxy-4,31-dimethyl-27,27-dioxo-21,26-dioxa-27λ^6-thia-1,14,15,16-tetraazahexacyclo[20.5.3.1^3,70.1^9,130.0^12,160.0^25,29]dotriaconta-3(32),4,6,9(31),10,12,14,22,24,29-decaen-8-yl]acetic acid] | 0.146 nM | 292 nM | –
